Assays:
human PASK [1] = target: T1, human PASK (Homo sapiens, UniProt Q96RG2); assay: ADP-Glo kinase assay; format: biochemical; conditions: ADPGlo PASK kinase assay, 25 μM ATP, ZIPtide 25 μM
T1 construct: purchased ThermoFisher Scientific PR7013A
Method: The ADP-Glo™ kinase assay is a luminescent technology assay which measures the ADP formed from a kinase reaction. In this specific study, the kinase reactions consisted of the phosphorylation of the ZIPtide peptide substrate by human recombinant PASK. In a second step the kinase reaction is terminated and all the remaining ATP is depleted. In a final step the ADP is converted into ATP and this newly synthesized ATP is measured by using a luciferase/luciferin reaction. The generated light is measured using an Envision plate reader, wherein the luminescent signal obtained positively correlates with the kinase activity.
The test compounds are prepared as a serial dilution of 10 point dose responses with 1/5 dilution steps in 100% DMSO starting from 2 mM highest concentration, diluted 1/20 in water and 1 μL is transferred to the assay plates (PerkinElmer Inc., Cat #6007290).
(§1) 1% DMSO and 10 μM staurosporine final concentrations are used respectively as negative and positive controls.
2 μL enzyme-substrate mixture is added to the assay plates.
The reaction is started by adding 2 μL diluted ATP on the assay plates immediately after addition of the enzyme-substrate mixture to the compound. Plates are centrifuged for a few seconds at 1000 rpm and gently shaken for 2 min followed by an incubation at RT for 120 min.
The reactions are stopped and the unconsumed ATP is depleted by adding 5 μL ADP-Glo Reagent (Promega, Cat #V912B) to the reaction. The plates are centrifuged for a few seconds at 1000 rpm and incubated at RT for 40 min (ATP depletion).
The ADP is converted to ATP and luciferase and luciferin is introduced to detect ATP by adding 10 μL Kinase Detection Reagent (Promega, Cat #V913B+V914B) to the reaction. The plates are centrifuged for a few seconds at 1000 rpm and incubated at RT for 30 min (ADP detection).
Luminescence is measured on an Envision plate reader (PerkinElmer Inc.).
Raw data are generated following the read-out performed on the Envision plate reader, used to calculate percentage inhibition (PIN) values and plotted to generate dose response curves and derive the average half maximal inhibitory concentrations (IC50) reported in Table VIII.

[2] = target: T2, autophosphorylation of PASK at position Thr307 in Hek293 cells overexpressing PASK (Homo sapiens, UniProt Q96RG2); assay: PASK autophosphorylation ELISA assay; format: cell-based; conditions: 24 h, ELISA readout
T2 construct: expressed in transfected cells; host or cells: Hek293
T2 sequence (Q96RG2 with tags, fused parts or gaps): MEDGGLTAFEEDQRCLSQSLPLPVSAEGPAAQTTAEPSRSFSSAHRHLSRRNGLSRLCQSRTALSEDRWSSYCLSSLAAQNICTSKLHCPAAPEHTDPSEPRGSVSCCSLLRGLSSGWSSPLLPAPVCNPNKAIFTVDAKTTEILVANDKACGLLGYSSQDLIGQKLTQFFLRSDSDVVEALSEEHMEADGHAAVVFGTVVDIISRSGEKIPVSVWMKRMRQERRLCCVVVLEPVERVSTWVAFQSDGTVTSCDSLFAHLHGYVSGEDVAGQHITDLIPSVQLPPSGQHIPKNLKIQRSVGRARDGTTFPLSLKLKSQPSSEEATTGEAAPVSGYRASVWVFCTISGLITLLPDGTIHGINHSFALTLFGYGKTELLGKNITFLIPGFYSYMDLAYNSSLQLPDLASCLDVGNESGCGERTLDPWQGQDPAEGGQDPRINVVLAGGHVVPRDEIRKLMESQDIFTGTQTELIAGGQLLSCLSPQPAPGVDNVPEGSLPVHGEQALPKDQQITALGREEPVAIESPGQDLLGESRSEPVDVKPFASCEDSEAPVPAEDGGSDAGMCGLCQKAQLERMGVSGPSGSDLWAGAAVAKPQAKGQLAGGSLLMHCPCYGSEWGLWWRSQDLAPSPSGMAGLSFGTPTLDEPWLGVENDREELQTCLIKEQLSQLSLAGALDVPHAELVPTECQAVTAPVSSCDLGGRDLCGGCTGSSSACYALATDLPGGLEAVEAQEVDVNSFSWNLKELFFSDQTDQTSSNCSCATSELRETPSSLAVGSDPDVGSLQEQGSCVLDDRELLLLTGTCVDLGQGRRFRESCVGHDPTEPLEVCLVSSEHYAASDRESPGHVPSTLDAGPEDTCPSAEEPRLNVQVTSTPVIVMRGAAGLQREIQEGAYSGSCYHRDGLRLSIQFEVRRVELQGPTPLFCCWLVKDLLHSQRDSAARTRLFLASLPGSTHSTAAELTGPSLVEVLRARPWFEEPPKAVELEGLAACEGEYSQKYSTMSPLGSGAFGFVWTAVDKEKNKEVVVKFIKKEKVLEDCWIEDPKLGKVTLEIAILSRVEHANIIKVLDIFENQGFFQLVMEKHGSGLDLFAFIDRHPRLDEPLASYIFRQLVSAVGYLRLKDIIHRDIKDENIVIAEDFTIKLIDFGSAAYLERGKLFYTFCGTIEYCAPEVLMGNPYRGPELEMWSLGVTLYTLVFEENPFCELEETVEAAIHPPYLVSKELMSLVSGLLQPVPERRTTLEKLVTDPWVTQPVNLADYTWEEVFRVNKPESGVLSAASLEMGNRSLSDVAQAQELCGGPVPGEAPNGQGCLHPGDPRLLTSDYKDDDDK
Method: The compounds of the invention are profiled in a cellular assay to determine their capacity to reduce the autophosphorylation levels of PASK at position Thr307 in Hek293 cells overexpressing PASK, using an ELISA-based readout.
At day 1, a 96-well cell assay plate is coated with poly-D-lysine (50 μL/well of a 0.05 mg/mL solution in PBS) and incubated for 1 h at 37° C. The plate is subsequently washed once with PBS and stored dry at RT until further use. Hek293 cells are transfected with a pcDNA3.1-PASK(FL,WT)-FLAG construct (SEQ ID1) and seeded in culture medium (DMEM+10% FBS) in a poly-D-lysine coated 96-well plate (0.3 μL JetPEI DNA transfection reagent (Polyplus-transfection SA, Cat #101-40), 10 ng construct and 90 ng pBluescript, 60000 cells per well). […] The cell plate is incubated overnight at 37° C., 5% CO2.
At day 2, the medium of the assay plate is removed and 100 μL of fresh medium (DMEM+10% FBS) is added to the plate. Cell plate is further incubated overnight at 37° C., 5% CO2. This to allow further expression of PASK protein.
At day 3, the medium is removed and replaced with 100 μL of serum free medium (DMEM). Test compound is added to the plate (8 points concentration curve with 1/3 dilution steps starting from 30 μM final concentration in 0.3% DMSO final). In the positive and negative control wells of the plate, 0.3% DMSO final is added. For each tested condition, duplicates are made for ELISA readout. Cell plate is incubated 24 h at 37° C., 5% CO2.
At day 4, the medium is removed and the plate is washed once with 100 μL/well PBS. Cells are lysed by adding 50 μL/well western blot lysis buffer (20 mM Tris pH 7.5, 150 mM NaCl and 1% Triton) to the plate. The assay plate is stored at −80° C. and thawed to perform the ELISA readout.
At day 1, the ELISA plate is coated with the mouse anti-FLAG antibody (2 μg/mL diluted in PBS, 100 μL/well) and incubated overnight at 4° C.
At day 2, the plate is washed once with 150 μL/well PBS. 200 μL/well blocking buffer (PBS with 3% BSA) is added and the plate is incubated for 4 h at RT. The plate is washed with 150 μL/well high salt washing buffer (20 mM Na2HPO4, 0.5% Triton X-100, 0.1% SDS, 0.1% BSA and 1 M NaCl) followed by one wash with 150 μL/well low salt washing buffer (20 mM Na2HPO4, 0.5% Triton X-100, 0.1% SDS, 0.1% BSA and 150 mM NaCl). Meanwhile, the cell lysate plate is thawed, two wells of the same condition are pooled (2×50 μL) and added to the ELISA plate. The ELISA plate is incubated overnight at 4° C.
At day 3, the ELISA plate is washed twice with 150 μL/well high salt washing buffer followed by two washes with low salt washing buffer. 100 μL/well detection antibody for pPASK (phospho-Akt substrate (RXXS*/T*) (110B7E) rabbit antibody (Cell Signaling Technology, Inc., Cat #9614) 2 μg/mL diluted in PBS with 3% BSA and 1×Halt™ protease and phosphatase inhibitor cocktail (Thermo Fisher Scientific, Inc., Cat #78447)) is added and incubated for 2 h at RT. The plate is washed twice with high and low salt wash buffer (150 μL/well) and 100 μL/well of an HRP antibody (swine anti-rabbit HRP antibody (Agilent Technologies, Inc., Cat #P039901) diluted 1/2000 in PBS with 3% BSA and 1×Halt™ protease and phosphatase inhibitor cocktail) is added to the plate, followed by an incubation for 1 h at RT in the dark (plate sealed with aluminum seal). The plate is washed twice with high and low salt wash buffer (150 μL/well) and 100 μL/well of SuperSignal™ ELISA Pico Chemiluminescent Substrate (Thermo Fisher Scientific, Inc., Cat #37070)(premix part 1 and part 2, 1/1) is added. The plate is incubated for 4 min at RT before measuring luminescence on the Luminoskan™ Ascent (Thermo Fisher Scientific, Inc.) (PMT default voltage; 100 ms integration time). […]

human PASK [3] = target: T1, human PASK; assay: 33P radioactive kinase assay; format: biochemical; conditions: 33P radioactive PASK kinase assay, 10 μM ATP, ZIPtide 1 μM
Method: The principle of the ^33P radioactive kinase assay consists in measuring the incorporated ^33P into the ZIPtide peptide substrate when phosphorylated by human PASK using [^33P]-[…]-ATP and ATP, which correlates with kinase activity.
The test compounds are prepared as a serial dilution of 10 point dose responses with 1/5 dilution steps in 100% DMSO starting from 0.2 or 2 mM highest concentration, diluted 1/20 in water and 5 μL is transferred to the assay plates (Greiner, Cat #651201).
as §1
11 μL of enzyme-substrate mixture is added on the assay plates. The reactions are started by adding 9 μL ATP mixture, consisting of non-labeled and ^33P-labeled ATP, on the assay plates.
The reactions are stopped by adding 25 μL phosphoric acid (150 mM) to the reactions.
The completely terminated kinase reactions are transferred using a harvester on pre-wetted UniFilter-96 plates (UniFilter-96 GF/B, PerkinElmer Inc., Cat #6005177).
After harvesting the kinase reactions, the filter plates are washed 6 times with phosphoric acid (75 mM). The back of the UniFilter-96 plates are sealed and 40 μL MicroScint-20 (PerkinElmer Inc., Cat #6013621) is added to each well. The top of each plate is sealed with TopSeal-A (PerkinElmer Inc., Cat #6050185). Read-out is performed with a TopCount instrument (PerkinElmer Inc.).
Raw data are generated following the read-out performed on the TopCount, used to calculate percentage inhibition (PIN) values and plotted to generate dose response curves and derive the average half maximal inhibitory concentrations (IC50) reported in Table VI.

T1 sequence (Q96RG2 whole entry): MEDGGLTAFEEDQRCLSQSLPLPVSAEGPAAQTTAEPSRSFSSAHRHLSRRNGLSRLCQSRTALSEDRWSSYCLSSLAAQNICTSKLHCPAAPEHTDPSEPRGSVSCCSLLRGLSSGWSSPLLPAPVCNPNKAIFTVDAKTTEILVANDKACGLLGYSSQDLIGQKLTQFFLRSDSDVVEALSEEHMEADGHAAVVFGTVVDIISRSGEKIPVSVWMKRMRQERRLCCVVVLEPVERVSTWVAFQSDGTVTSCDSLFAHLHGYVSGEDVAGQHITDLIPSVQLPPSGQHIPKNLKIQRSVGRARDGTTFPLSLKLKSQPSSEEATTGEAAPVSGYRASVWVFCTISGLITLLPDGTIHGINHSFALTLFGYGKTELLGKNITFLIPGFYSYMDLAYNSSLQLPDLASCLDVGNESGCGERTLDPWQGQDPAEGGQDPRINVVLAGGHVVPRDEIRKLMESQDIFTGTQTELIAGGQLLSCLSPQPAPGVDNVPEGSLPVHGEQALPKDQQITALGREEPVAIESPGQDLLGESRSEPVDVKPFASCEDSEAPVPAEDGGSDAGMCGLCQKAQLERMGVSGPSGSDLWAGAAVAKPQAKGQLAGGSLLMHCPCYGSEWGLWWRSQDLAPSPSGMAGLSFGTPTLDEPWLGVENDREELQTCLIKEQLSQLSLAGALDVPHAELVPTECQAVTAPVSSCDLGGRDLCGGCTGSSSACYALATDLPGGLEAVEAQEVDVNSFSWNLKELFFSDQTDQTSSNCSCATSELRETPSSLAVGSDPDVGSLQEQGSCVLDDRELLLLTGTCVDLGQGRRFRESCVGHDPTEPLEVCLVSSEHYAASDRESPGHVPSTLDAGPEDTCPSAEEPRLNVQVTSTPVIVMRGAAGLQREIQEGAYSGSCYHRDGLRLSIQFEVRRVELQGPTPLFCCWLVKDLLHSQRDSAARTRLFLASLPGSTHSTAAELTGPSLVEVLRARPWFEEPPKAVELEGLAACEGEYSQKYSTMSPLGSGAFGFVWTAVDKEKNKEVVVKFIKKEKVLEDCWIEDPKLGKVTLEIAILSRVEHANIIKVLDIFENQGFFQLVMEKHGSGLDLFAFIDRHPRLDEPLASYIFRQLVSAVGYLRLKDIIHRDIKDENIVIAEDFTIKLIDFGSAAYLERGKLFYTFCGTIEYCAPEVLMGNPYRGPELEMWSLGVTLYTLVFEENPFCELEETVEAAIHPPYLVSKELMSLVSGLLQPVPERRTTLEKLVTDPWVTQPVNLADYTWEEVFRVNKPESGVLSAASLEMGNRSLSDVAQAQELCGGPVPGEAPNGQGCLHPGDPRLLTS

Compound	IC50 (human PASK [1]) [nM]	IC50 [2] [nM]	IC50 (human PASK [3]) [nM]
Cc1nn(C(F)F)c(C)c1-c1cnn2ccc(-n3cc(C(=O)O)cn3)cc12 [Cpd 69, 1-[3-[1-(difluoromethyl)-3,5-dimethyl-pyrazol-4-yl]pyrazolo[1,5-a]pyridin-5-yl]pyrazole-4-carboxylic acid]	0.01 to 10	> 5000	
COc1nn(-c2ccn3ncc(-c4c(C)nn(CC(F)(F)F)c4C)c3c2)cc1C(=O)O [Cpd 68, 1-[3-[3,5-dimethyl-1-(2,2,2-trifluoroethyl)pyrazol-4-yl]pyrazolo[1,5-a]pyridin-5-yl]-3-methoxy-pyrazole-4-carboxylic acid]	0.01 to 10	> 5000	
Cc1c(-c2cnn3ccc(-n4cc(C(=O)O)cn4)cc23)c(C(F)(F)F)nn1C [Cpd 67, 1-[3-[1,5-dimethyl-3-(trifluoromethyl)pyrazol-4-yl]pyrazolo[1,5-a]pyridin-5-yl]pyrazole-4-carboxylic acid]	0.01 to 10	1000 to 5000	
Cc1nn(CC(F)(F)F)c(C)c1-c1cnn2ccc(-n3cc(C(=O)O)cn3)cc12 [Cpd 62, 1-[3-[3,5-dimethyl-1-(2,2,2-trifluoroethyl)pyrazol-4-yl]pyrazolo[1,5-a]pyridin-5-yl]pyrazole-4-carboxylic acid]	0.01 to 10	> 5000	
COc1nn(-c2ccn3ncc(-c4c(C)nn(C(F)F)c4C)c3c2)cc1C(=O)O [Cpd 71, 1-[3-[1-(difluoromethyl)-3,5-dimethyl-pyrazol-4-yl]pyrazolo[1,5-a]pyridin-5-yl]-3-methoxy-pyrazole-4-carboxylic acid]	0.01 to 10	> 5000	
Cc1noc(C)c1-c1cnn2ccc(-c3cc(C(=O)O)c(C4CCOCC4)o3)cc12 [Cpd 44, 5-[3-(3,5-dimethylisoxazol-4-yl)pyrazolo[1,5-a]pyridin-5-yl]-2-tetrahydropyran-4-yl-furan-3-carboxylic acid]	0.01 to 10		0.01 to 10

Results, then the molecule that gave them:

IC50 (human PASK [1]) [nM]	IC50 [2] [nM]	IC50 (human PASK [3]) [nM]	Compound
0.01 to 10	0.1 to 500		Cc1nn(C)c(C)c1-c1cnn2ccc(-c3nc(C4CC4)c(C(=O)O)s3)cc12 [Cpd 86, 4-cyclopropyl-2-[3-(1,3,5-trimethylpyrazol-4-yl)pyrazolo[1,5-a]pyridin-5-yl]thiazole-5-carboxylic acid]
0.01 to 10	0.1 to 500		CCOc1nc(-c2ccn3ncc(-c4c(C)nn(CC)c4C)c3c2)sc1C(=O)O [Cpd 64, 4-ethoxy-2-[3-(1-ethyl-3,5-dimethyl-pyrazol-4-yl)pyrazolo[1,5-a]pyridin-5-yl]thiazole-5-carboxylic acid]
0.01 to 10	1000 to 5000		COc1nc(-c2ccn3ncc(-c4c(C)nn(C(C)C(F)(F)F)c4C)c3c2)sc1C(=O)O (stereo not shown) [Cpd 85, 2-[3-[3,5-dimethyl-1-(2,2,2-trifluoro-1-methyl-ethyl)pyrazol-4-yl]pyrazolo[1,5-a]pyridin-5-yl]-4-methoxy-thiazole-5-carboxylic acid]
0.01 to 10	> 5000		COc1nc(-c2ccn3ncc(-c4c(C)nn(C(F)F)c4C)c3c2)sc1C(=O)O [Cpd 79, 2-[3-[1-(difluoromethyl)-3,5-dimethyl-pyrazol-4-yl]pyrazolo[1,5-a]pyridin-5-yl]-4-methoxy-thiazole-5-carboxylic acid]
0.01 to 10	1000 to 5000		COc1nc(-c2ccn3ncc(-c4c(C(F)(F)F)nn(C)c4C)c3c2)sc1C(=O)O [Cpd 89, 2-[3-[1,5-dimethyl-3-(trifluoromethyl)pyrazol-4-yl]pyrazolo[1,5-a]pyridin-5-yl]-4-methoxy-thiazole-5-carboxylic acid]
0.01 to 10	> 5000		Cc1nn(C(F)F)c(C)c1-c1cnn2ccc(-c3ncc(C(=O)O)s3)cc12 [Cpd 50, 2-[3-[1-(difluoromethyl)-3,5-dimethyl-pyrazol-4-yl]pyrazolo[1,5-a]pyridin-5-yl]thiazole-5-carboxylic acid]
0.01 to 10	0.1 to 500		CCOc1nc(-c2ccn3ncc(-c4c(C)nn(CC(F)(F)F)c4C)c3c2)sc1C(=O)O [Cpd 70, 2-[3-[3,5-dimethyl-1-(2,2,2-trifluoroethyl)pyrazol-4-yl]pyrazolo[1,5-a]pyridin-5-yl]-4-ethoxy-thiazole-5-carboxylic acid]
0.01 to 10		0.01 to 10	Cc1nn(C)c(C)c1-c1cnn2ccc(-c3cc(C(=O)O)c(C4CC4)o3)cc12 [Cpd 15, 2-cyclopropyl-5-[3-(1,3,5-trimethylpyrazol-4-yl)pyrazolo[1,5-a]pyridin-5-yl]furan-3-carboxylic acid]

Reference: patent US20220144823A1, “PYRAZOLOPYRIDINE DERIVATIVES AS INHIBITORS OF PASK” (Galapagos NV, priority 2019, published 2022)
